In patent US12539298B2, “Lobinaline N-oxides as positive allosteric modulators of the dopamine transporter with potential value in the treatment of substance abuse disorders” (University of Kentucky Research Foundation, priority 2019, dated 2026):

Tests used:
[1] = octanol/water partition (K octanol/water); format: physicochemical
Text: Lobinaline and the “mono”-N-oxide were separated from plant and culture material by acid/base extraction, but the bi-N-oxide was derived from lobinaline using 3-chloroperbenzoic acid. All these compounds were separated by column chromatography with identity and purity confirmed by LC/MS.

[2] = system: rat striatal synaptosomes; assay: [3H]DA release from rat striatal synaptosomes; format: biochemical; settings: preloaded synaptosomes; 10-500 uM tested; 30 min at 37° C
Experimental: (§1) [3H]DA release from rat striatal synaptosomes: Synaptosomes preloaded with [3H]DA were exposed to lobinaline (10-500 uM), 30 min @ 37° C.). [3H]DA release was calculated by subtraction of activity following drug treatment from activity in the absence of drug.

[3] = molecular target: nicAChRs; assay: displacement of [3H]epibatidine from rat brain homogenates; format: binding
[4] = molecular target: T1, alpha4/beta2 nicAChR (Rattus norvegicus, UniProt P09483+P12390); assay: displacement of beta2-selective radioligand [3H]cytisine; format: binding
T1 construct: from tissue
T1 sequence (P09483 31-630): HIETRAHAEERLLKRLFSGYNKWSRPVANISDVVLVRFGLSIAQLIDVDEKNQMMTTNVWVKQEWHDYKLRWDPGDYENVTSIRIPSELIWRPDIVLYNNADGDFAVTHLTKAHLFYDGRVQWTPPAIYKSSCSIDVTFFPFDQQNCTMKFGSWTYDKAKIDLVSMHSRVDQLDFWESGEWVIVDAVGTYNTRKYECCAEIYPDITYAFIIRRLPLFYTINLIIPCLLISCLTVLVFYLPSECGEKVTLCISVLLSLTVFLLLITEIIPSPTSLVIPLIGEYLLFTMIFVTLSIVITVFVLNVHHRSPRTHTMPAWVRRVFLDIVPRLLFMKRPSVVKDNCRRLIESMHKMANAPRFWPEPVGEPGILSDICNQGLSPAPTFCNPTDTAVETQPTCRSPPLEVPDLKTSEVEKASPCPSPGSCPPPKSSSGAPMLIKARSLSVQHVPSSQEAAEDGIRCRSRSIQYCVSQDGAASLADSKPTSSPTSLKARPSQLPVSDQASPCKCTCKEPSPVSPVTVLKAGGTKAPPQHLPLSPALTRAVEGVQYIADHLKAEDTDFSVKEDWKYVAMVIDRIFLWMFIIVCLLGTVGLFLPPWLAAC
T1 sequence (P12390 25-500): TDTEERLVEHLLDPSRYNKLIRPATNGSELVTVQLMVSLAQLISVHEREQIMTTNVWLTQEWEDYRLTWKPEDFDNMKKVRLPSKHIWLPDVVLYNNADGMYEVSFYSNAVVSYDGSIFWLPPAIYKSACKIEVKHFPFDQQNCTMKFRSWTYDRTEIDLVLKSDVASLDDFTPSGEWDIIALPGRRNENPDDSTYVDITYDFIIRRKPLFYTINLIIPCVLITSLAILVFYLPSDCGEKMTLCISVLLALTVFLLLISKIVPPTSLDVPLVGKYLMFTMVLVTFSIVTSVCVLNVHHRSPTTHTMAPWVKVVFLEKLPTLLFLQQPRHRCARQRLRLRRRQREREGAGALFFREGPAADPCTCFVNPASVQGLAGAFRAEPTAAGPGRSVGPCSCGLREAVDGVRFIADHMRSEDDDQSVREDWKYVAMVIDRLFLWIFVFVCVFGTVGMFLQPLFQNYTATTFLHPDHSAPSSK

[5] = molecular target: T2, alpha7-nicAChR (Rattus norvegicus, UniProt Q05941); assay: displacement of [3H]-methyllycaconitine; format: binding; settings: alpha7-nicAChR selective radioligand
T2 construct: from tissue
T2 sequence (Q05941 23-502): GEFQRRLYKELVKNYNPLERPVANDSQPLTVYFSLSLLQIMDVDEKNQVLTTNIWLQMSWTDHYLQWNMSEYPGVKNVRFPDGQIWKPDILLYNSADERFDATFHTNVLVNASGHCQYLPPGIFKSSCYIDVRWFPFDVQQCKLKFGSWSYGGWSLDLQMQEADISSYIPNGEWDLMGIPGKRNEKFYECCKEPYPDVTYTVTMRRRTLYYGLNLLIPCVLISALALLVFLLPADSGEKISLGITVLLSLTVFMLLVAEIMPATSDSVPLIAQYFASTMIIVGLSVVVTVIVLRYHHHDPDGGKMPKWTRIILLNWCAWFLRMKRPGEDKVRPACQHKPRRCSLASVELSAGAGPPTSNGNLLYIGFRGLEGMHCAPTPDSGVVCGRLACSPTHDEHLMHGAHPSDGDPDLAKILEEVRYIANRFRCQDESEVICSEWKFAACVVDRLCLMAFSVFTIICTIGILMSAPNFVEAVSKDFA

[6] = system: nicAChR; assay: 45Ca2+ entry into SHSY5Y cells; format: cell-based; settings: conclusion from 45Ca2+ entry
Text: Effects of lobinaline and nicotine on ^45Ca^2+ entry into SHSY5Y cells: nicAChR function can be evaluated semi-quantitatively in this cell line by measuring ^45Ca^2+ entry in response to nicotine. […] The lobinaline N-oxides have not yet been tested in this system.

[7] = conditioned place preference (abuse potential); format: in vivo, SD rats
Text: In conditioned place preference a chamber with distinct cues is repeatedly paired with administration of the test drug. A second chamber is repeatedly paired with a control injection. After conditioning, a test phase allows the rat to move between the chambers. If a drug is “rewarding” (i.e. has abuse potential), the rat spends more time in the drug-associated chamber. If it is aversive, the opposite result is obtained.
Methods: 6 male and 6 female SD rats were used for each drug and dose. Test drugs (5 or 25 mg/kg lobinaline, or 25 mg/Kg of lobinaline bi-N-oxide S.C) were paired with the “less preferred” compartment (standard for drugs that may be weakly reinforcing) for 20 minutes. On the next day, rats received a control (DMSO/saline) injection and were placed in the preferred chamber. After three repeated pairings (test and control), the subjects were given access to both chambers and the time spent in each compartment was recorded and scored by an observer blind to treatment. Analysis was by two way ANOVA with post hoc Bonnferoni with significance set at p<0.05. Results. Most animals spent most of the test period in the compartment originally preferred in the drug-free state, and there were no significant differences between drug and vehicle controls.

[8] = Drinking in the dark model of binge drinking; format: in vivo, C57Bl/6J mice; settings: 25 mg/Kg SC
Experimental: “Drinking in the dark” is a model for binge drinking in which C57Bl/6J mice are given limited access to alcohol during their dark cycle. With repeated daily access, mice will voluntarily drink to blood alcohol levels above 150 mg/dl. Lobeline reduces alcohol consumption in this model and it has predictive validity in that both naltrexone and acamprosate are active.
Methods: 8 male and 8 female mice were used for each of these studies and scoring was by an observer blind to treatment. Statistical analysis was by ANOVA followed by Bonnferoni posthoc with significance at p<0.05.

[9] = molecular target: T3, DAT (Rattus norvegicus, UniProt P23977); assay: [3H]DA uptake into rat striatal synaptosomes; format: biochemical; parameters: from tissue; host or cells: rat striatum (synaptosomes; homogenate); settings: compound added 15 min before [3H]DA, 30 min at 37° C, read-out: IC50, inhibition of [3H]-DA uptake
T3 sequence (P23977 whole entry): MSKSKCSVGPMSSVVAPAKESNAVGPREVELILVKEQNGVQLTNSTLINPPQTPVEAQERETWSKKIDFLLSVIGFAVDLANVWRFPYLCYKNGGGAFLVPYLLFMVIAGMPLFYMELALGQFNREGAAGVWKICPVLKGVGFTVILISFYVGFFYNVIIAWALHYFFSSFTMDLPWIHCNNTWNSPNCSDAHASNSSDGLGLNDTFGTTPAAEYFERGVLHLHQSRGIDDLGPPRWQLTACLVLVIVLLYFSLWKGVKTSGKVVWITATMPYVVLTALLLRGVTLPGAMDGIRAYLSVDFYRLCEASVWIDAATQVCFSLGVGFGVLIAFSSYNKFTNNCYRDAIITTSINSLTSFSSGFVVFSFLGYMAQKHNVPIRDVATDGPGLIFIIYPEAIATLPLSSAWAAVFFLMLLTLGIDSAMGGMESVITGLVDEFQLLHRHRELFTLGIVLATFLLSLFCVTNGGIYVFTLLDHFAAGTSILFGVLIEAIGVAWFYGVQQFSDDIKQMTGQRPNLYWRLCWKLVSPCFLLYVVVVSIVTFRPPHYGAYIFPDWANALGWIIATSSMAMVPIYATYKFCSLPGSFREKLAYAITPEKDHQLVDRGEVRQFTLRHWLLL
Experimental: Lobinaline or the N-oxides were added 15 min before addition of [3H]DA. Synaptosomal uptake of [3H]DA was measured after 30 min incubation at 37° C.

[10] = molecular target: T3, DAT; assay: [3H]GBR 12935 binding to rat striatal homogenate; parameters: from tissue; host or cells: rat striatum (synaptosomes; homogenate)
Experimental: as §1

[11] = molecular target: T3, DAT; assay: DA clearance in striatum of anesthetized rats by in vivo electrochemistry (high-speed chronoamperometry), Example 8; parameters: DA clearance in striatum and nucleus accumbens of urethane-anesthetized SD rats; from tissue; host or cells: striatum / nucleus accumbens of living anesthetized SD rats; species or system SD rats
Experimental: DA clearance in striatum and nucleus accumbens of urethane-anesthetized SD rats was monitored by in vivo electrochemistry using high-speed chrono-amperometry [see 36]. After obtaining reproducible signals for locally applied DA, vehicle or drug was applied slowly over 10-30 sec, then 30-60 sec later the next application of DA was made, with subsequent DA applications at 5-minute intervals for 25-30 min. The DA kinetic data from each animal was analyzed using FAST software (Quanteon). […] These effects were no longer seen 3-5 minutes after lobinaline ejection. They are consistent with simple competitive inhibition of the DAT by lobinaline. […] However, the lobinaline N-oxides produce different effects. Representative data from lobinaline N-oxide, at the same concentration used for lobinaline (1 mM in 250 nl medium) are shown in FIG. 6. […] This is entirely consistent with effects on synaptosomal [3H]DA uptake in vitro above, and probably represents competitive inhibition. However, after exposure to the N-oxide there is a significant and prolonged (c20 min) increase in the first order rate of decay of the DA peak. […] This increase in rate constant induced by the N-oxide varied from 20× to 2× at increasing depths in the DV gradient.
The uptake rate of locally applied DA (˜100 nl; 200 μM) was measured before and 1 minute after local application of lobinaline (˜250 nl; 1 mM), 403 (˜300 nl; 250 μM) or 419 (˜300 nl; 250 μM) (FIGS. 7, 8, and 9).

[12] = molecular target: T3, DAT; assay: dopamine uptake in striatum of isoflurane-anesthetized rats by in vivo electrochemistry, Examples 19-20; parameters: DA clearance in striatum and nucleus accumbens of urethane-anesthetized SD rats; from tissue; host or cells: striatum / nucleus accumbens of living anesthetized SD rats; species or system SD rats
Experimental: After obtaining reproducible signals for locally applied DA (50-75 nl, 200 μM) to produce a control DA peak height below 1 uM, vehicle or drug was locally applied slowly over 10-30 sec (˜500 nl 250 μM), then 60 sec later the next application of DA was performed, with subsequent DA applications at 5-min intervals for 25 min. […] The DA kinetic data from each animal were analyzed using FAST software (Quanteon, LLC, Nicholasville KY USA). […] These parameters were compared between pre- and post-drug application by one-way ANOVA with Tukey's post hoc analysis, with significance assigned at p<0.05.

CN1CCCC2C(c3ccccc3)C(C3=NCCCC3)C(c3ccccc3)CC21 (centres unmarked) [lobinaline]
K octanol/water (Ko/w) [1]: 4.8 | concentration causing significant release of [3H]DA [2]: 500 µM | Ki [3]: 16 µM | character of [3H]epibatidine displacement [3]: monophasically displaced | Ki [4]: 1.1 µM | Ki [5]: 15 µM | mode of action at nicAChRs [6]: weak partial agonist | overt toxicity ([7]; after 3 repeated drug administrations): no signs of overt toxicity | sedation or locomotor activation ([7]; lobinaline 5 or 25 mg/kg, bi-N-oxide 25 mg/Kg S.C): no sedation or locomotor activation | conditioned place preference or aversion ([7]; lobinaline 5 or 25 mg/kg, bi-N-oxide 25 mg/Kg S.C, three pairings): neither lobinaline nor the lobinaline bi-N-oxide produced conditioned place preference or aversion | food or water intake [8]: no reduction in food or water intake | overt toxicity [8]: neither compound produced overt toxicity | inhibition of alcohol consumption ([8]; males and females): ~40% | IC50 [9]: 0.359 µM | extent of displacement of [3H]GBR 12935 [10]: completely displaced | Ki ([10]; read-out: Ki, displacement of [3H]GBR 12935): 2.54 µM | effect on DA clearance rate ([11]; 1-minute post-application): significantly decreased | effect on DA peak ([11]; local application 1 mM, 250 nl): non-significantly decreased | time after ejection at which effects are no longer seen / DA clearance returns to normal ([11]; local ejection in striatum): 3 to 5 min | reduction in DA clearance ([11]; striatum, 1 minute after local application (lobinaline ~250 nl 1 mM; 403, 419 ~300 nl 250 μM), FIGS. 7-9): 50% | release of endogenous DA ([12]; any brain region, n=8-36): Neither lobinaline nor its N-oxides ever caused release of endogenous DA | effect on DA clearance parameters ([12]; relative to % control): small, but significant, reduction in all DA clearance parameters | effect on amplitude of the DA signal ([12]; single local application ~500 nl 250 μM, striatum, FIGS. 10, 11): transient, a non-significant decrease in amplitude
